{"source": "patent US10357514B2", "about": "“Treatment of cancer using anti-CD19 Chimeric Antigen Receptor” (The Trustees of the University of Pennsylvania, priority 2014, dated 2019)", "assay": "Adverse event assessment in elderly volunteers, randomized placebo-controlled trial", "settings": "for Treatment-related AE incidence: Blood cholesterol increased / Treatment-related AE incidence: Conjunctivitis / Treatment-related AE incidence: Diarrhea / Treatment-related AE incidence: Dry mouth / Treatment-related AE incidence: Dyspepsia / Treatment-related AE incidence: Erythema / Treatment-related AE incidence: Fatigue / Treatment-related AE incidence: Headache / Treatment-related AE incidence: Insomnia / Treatment-related AE incidence: Limb discomfort / Treatment-related AE incidence: Low density lipoprotein increased / Treatment-related AE incidence: Mouth ulceration / Treatment-related AE incidence: Mucosal inflammation / Treatment-related AE incidence: Neutropenia / Treatment-related AE incidence: Oral pain / Treatment-related AE incidence: Paresthesia oral / Treatment-related AE incidence: Pruritus / Treatment-related AE incidence: Stomatitis / Treatment-related AE incidence: Thrombocytopenia / Treatment-related AE incidence: Tongue ulceration / Treatment-related AE incidence: Urinary tract infection / Treatment-related AEs: Patients with AE(s) / Treatment-related AEs: Total AE(s): N = 53"}
{"smiles": "CO[C@H]1C[C@@H]2CC[C@@H](C)[C@@](O)(O2)C(=O)C(=O)N2CCCC[C@H]2C(=O)O[C@H]([C@H](C)C[C@@H]2CC[C@@H](OCCO)[C@H](OC)C2)CC(=O)[C@H](C)/C=C(\\C)[C@@H](O)[C@@H](OC)C(=O)[C@H](C)C[C@H](C)/C=C/C=C/C=C/1C", "note": "[RAD001, (1R,9S,12S,15R,16E,18R,19R,21R,23S,24E,26E,28E,30S,32S,35R)-1,18-dihydroxy-12-{(1R)-2-[(1S,3R,4R)-4-(2-hydroxyethoxy)-3-methoxycyclohexyl]-1-methylethyl}-19,30-dimethoxy-15,17,21,23,29,35-hexamethyl-11,36-dioxa-4-aza-tricyclo[30.3.1.04,9]hexatriaconta-16,24,26,28-tetraene-2,3,10,14,20-pentaone]", "values": [{"measurement": "Treatment-related AE incidence: Blood cholesterol increased", "setting": "0.5 mg daily", "value": "2 (3.8%) n (%)"}, {"measurement": "Treatment-related AE incidence: Conjunctivitis", "setting": "0.5 mg daily", "value": "0 n (%)"}, {"measurement": "Treatment-related AE incidence: Diarrhea", "setting": "0.5 mg daily", "value": "1 (1.9%) n (%)"}, {"measurement": "Treatment-related AE incidence: Dry mouth", "setting": "0.5 mg daily", "value": "0 n (%)"}, {"measurement": "Treatment-related AE incidence: Dyspepsia", "setting": "0.5 mg daily", "value": "0 n (%)"}, {"measurement": "Treatment-related AE incidence: Erythema", "setting": "0.5 mg daily", "value": "0 n (%)"}, {"measurement": "Treatment-related AE incidence: Fatigue", "setting": "0.5 mg daily", "value": "0 n (%)"}, {"measurement": "Treatment-related AE incidence: Headache", "setting": "0.5 mg daily", "value": "0 n (%)"}, {"measurement": "Treatment-related AE incidence: Insomnia", "setting": "0.5 mg daily", "value": "1 (1.9%) n (%)"}, {"measurement": "Treatment-related AE incidence: Limb discomfort", "setting": "0.5 mg daily", "value": "0 n (%)"}, {"measurement": "Treatment-related AE incidence: Low density lipoprotein increased", "setting": "0.5 mg daily", "value": "2 (3.8%) n (%)"}, {"measurement": "Treatment-related AE incidence: Mouth ulceration", "setting": "0.5 mg daily", "value": "6 (11.3%) n (%)"}, {"measurement": "Treatment-related AE incidence: Mucosal inflammation", "setting": "0.5 mg daily", "value": "0 n (%)"}, {"measurement": "Treatment-related AE incidence: Neutropenia", "setting": "0.5 mg daily", "value": "0 n (%)"}, {"measurement": "Treatment-related AE incidence: Oral pain", "setting": "0.5 mg daily", "value": "0 n (%)"}, {"measurement": "Treatment-related AE incidence: Paresthesia oral", "setting": "0.5 mg daily", "value": "2 (3.8%) n (%)"}, {"measurement": "Treatment-related AE incidence: Pruritus", "setting": "0.5 mg daily", "value": "0 n (%)"}, {"measurement": "Treatment-related AE incidence: Stomatitis", "setting": "0.5 mg daily", "value": "0 n (%)"}, {"measurement": "Treatment-related AE incidence: Thrombocytopenia", "setting": "0.5 mg daily", "value": "0 n (%)"}, {"measurement": "Treatment-related AE incidence: Tongue ulceration", "setting": "0.5 mg daily", "value": "3 (5.7%) n (%)"}, {"measurement": "Treatment-related AE incidence: Urinary tract infection", "setting": "0.5 mg daily", "value": "0 n (%)"}, {"measurement": "Treatment-related AEs: Patients with AE(s)", "setting": "0.5 mg daily", "value": "22 (41.5%) n (%)"}, {"measurement": "Treatment-related AEs: Total AE(s)", "setting": "0.5 mg daily", "value": "35 n (%)"}, {"measurement": "Treatment-related AE incidence: Blood cholesterol increased", "setting": "5 mg weekly", "value": "2 (3.8%) n (%)"}, {"measurement": "Treatment-related AE incidence: Conjunctivitis", "setting": "5 mg weekly", "value": "2 (3.8%) n (%)"}, {"measurement": "Treatment-related AE incidence: Diarrhea", "setting": "5 mg weekly", "value": "4 (7.5%) n (%)"}, {"measurement": "Treatment-related AE incidence: Dry mouth", "setting": "5 mg weekly", "value": "0 n (%)"}, {"measurement": "Treatment-related AE incidence: Dyspepsia", "setting": "5 mg weekly", "value": "3 (5.7%) n (%)"}, {"measurement": "Treatment-related AE incidence: Erythema", "setting": "5 mg weekly", "value": "2 (3.8%) n (%)"}, {"measurement": "Treatment-related AE incidence: Fatigue", "setting": "5 mg weekly", "value": "2 (3.8%) n (%)"}, {"measurement": "Treatment-related AE incidence: Headache", "setting": "5 mg weekly", "value": "2 (3.8%) n (%)"}, {"measurement": "Treatment-related AE incidence: Insomnia", "setting": "5 mg weekly", "value": "2 (3.8%) n (%)"}, {"measurement": "Treatment-related AE incidence: Limb discomfort", "setting": "5 mg weekly", "value": "2 (3.8%) n (%)"}, {"measurement": "Treatment-related AE incidence: Low density lipoprotein increased", "setting": "5 mg weekly", "value": "1 (1.9%) n (%)"}, {"measurement": "Treatment-related AE incidence: Mouth ulceration", "setting": "5 mg weekly", "value": "2 (3.8%) n (%)"}, {"measurement": "Treatment-related AE incidence: Mucosal inflammation", "setting": "5 mg weekly", "value": "0 n (%)"}, {"measurement": "Treatment-related AE incidence: Neutropenia", "setting": "5 mg weekly", "value": "0 n (%)"}, {"measurement": "Treatment-related AE incidence: Oral pain", "setting": "5 mg weekly", "value": "2 (3.8%) n (%)"}, {"measurement": "Treatment-related AE incidence: Paresthesia oral", "setting": "5 mg weekly", "value": "0 n (%)"}, {"measurement": "Treatment-related AE incidence: Pruritus", "setting": "5 mg weekly", "value": "2 (3.8%) n (%)"}, {"measurement": "Treatment-related AE incidence: Stomatitis", "setting": "5 mg weekly", "value": "0 n (%)"}, {"measurement": "Treatment-related AE incidence: Thrombocytopenia", "setting": "5 mg weekly", "value": "0 n (%)"}, {"measurement": "Treatment-related AE incidence: Tongue ulceration", "setting": "5 mg weekly", "value": "1 (1.9%) n (%)"}, {"measurement": "Treatment-related AE incidence: Urinary tract infection", "setting": "5 mg weekly", "value": "0 n (%)"}, {"measurement": "Treatment-related AEs: Patients with AE(s)", "setting": "5 mg weekly", "value": "20 (37.7%) n (%)"}, {"measurement": "Treatment-related AEs: Total AE(s)", "setting": "5 mg weekly", "value": "46 n (%)"}, {"measurement": "Treatment-related AE incidence: Blood cholesterol increased", "setting": "20 mg weekly", "value": "2 (3.8%) n (%)"}, {"measurement": "Treatment-related AE incidence: Conjunctivitis", "setting": "20 mg weekly", "value": "0 n (%)"}, {"measurement": "Treatment-related AE incidence: Diarrhea", "setting": "20 mg weekly", "value": "1 (1.9%) n (%)"}, {"measurement": "Treatment-related AE incidence: Dry mouth", "setting": "20 mg weekly", "value": "2 (3.8%) n (%)"}, {"measurement": "Treatment-related AE incidence: Dyspepsia", "setting": "20 mg weekly", "value": "2 (3.8%) n (%)"}, {"measurement": "Treatment-related AE incidence: Erythema", "setting": "20 mg weekly", "value": "0 n (%)"}, {"measurement": "Treatment-related AE incidence: Fatigue", "setting": "20 mg weekly", "value": "4 (7.5%) n (%)"}, {"measurement": "Treatment-related AE incidence: Headache", "setting": "20 mg weekly", "value": "9 (17.0%) n (%)"}, {"measurement": "Treatment-related AE incidence: Insomnia", "setting": "20 mg weekly", "value": "1 (1.9%) n (%)"}, {"measurement": "Treatment-related AE incidence: Limb discomfort", "setting": "20 mg weekly", "value": "0 n (%)"}, {"measurement": "Treatment-related AE incidence: Low density lipoprotein increased", "setting": "20 mg weekly", "value": "2 (3.8%) n (%)"}, {"measurement": "Treatment-related AE incidence: Mouth ulceration", "setting": "20 mg weekly", "value": "9 (17.0%) n (%)"}, {"measurement": "Treatment-related AE incidence: Mucosal inflammation", "setting": "20 mg weekly", "value": "2 (3.8%) n (%)"}, {"measurement": "Treatment-related AE incidence: Neutropenia", "setting": "20 mg weekly", "value": "3 (5.7%) n (%)"}, {"measurement": "Treatment-related AE incidence: Oral pain", "setting": "20 mg weekly", "value": "1 (1.9%) n (%)"}, {"measurement": "Treatment-related AE incidence: Paresthesia oral", "setting": "20 mg weekly", "value": "0 n (%)"}, {"measurement": "Treatment-related AE incidence: Pruritus", "setting": "20 mg weekly", "value": "1 (1.9%) n (%)"}, {"measurement": "Treatment-related AE incidence: Stomatitis", "setting": "20 mg weekly", "value": "2 (3.8%) n (%)"}, {"measurement": "Treatment-related AE incidence: Thrombocytopenia", "setting": "20 mg weekly", "value": "2 (3.8%) n (%)"}, {"measurement": "Treatment-related AE incidence: Tongue ulceration", "setting": "20 mg weekly", "value": "0 n (%)"}, {"measurement": "Treatment-related AE incidence: Urinary tract infection", "setting": "20 mg weekly", "value": "2 (3.8%) n (%)"}, {"measurement": "Treatment-related AEs: Patients with AE(s)", "setting": "20 mg weekly", "value": "27 (50.9%) n (%)"}, {"measurement": "Treatment-related AEs: Total AE(s)", "setting": "20 mg weekly", "value": "109 n (%)"}, {"measurement": "tolerability", "setting": "6 weeks, particularly the 0.5 mg daily and 5 mg weekly dosing regimens", "value": "well tolerated"}, {"measurement": "deaths during the study", "setting": "all cohorts", "value": "No deaths"}, {"measurement": "severe AEs assessed as related to RAD001", "setting": "mouth ulcers, subject treated with 20 mg weekly", "value": "one"}]}
